Values after ≈ are worked out from the molar mass of the structure shown. Like-named read-outs stand apart in the source and are kept apart here.
Tests used:
[1] = test system: 54 clinically isolated C. difficile strains; experiment: MIC by agar dilution against 54 clinically isolated strains; format: cell-based, Clostridioides difficile; details: for MIC90 / MIC50: Clostridioides difficile, 54 clinically isolated C. difficile strains; for MIC50: read-out: MIC50
Description: (§1) MICs obtained using the agar dilution method were determined visually as described for the CLSI method ([41], [42]). MICs obtained using the broth dilution method were determined visually based on the CLSI method except for using Gifu anaerobic medium (GAM) broth instead of supplemented Brucella broth ([41], [42]).

[2] = test system: hypervirulent and nonhypervirulent strains of C. difficile (62 strains); experiment: MIC distribution against 20 hypervirulent and 42 nonhypervirulent strains; format: cell-based, Clostridioides difficile; details: for MIC90 / MIC50: Clostridioides difficile
[3] = test system: 10 clinical isolates of C. difficile; experiment: MIC (broth dilution) and MBC testing, 10 clinical isolates; format: cell-based, Clostridioides difficile; details: 10 clinical isolates
Description: In this test, MIC testing was performed using the broth dilution method as recommended in the CLSI ([41]). After the MICs were determined, 10 μl of the bacterial suspension from the MIC test tube was inoculated onto agar plates and incubated at 37°C. The bacterial colonies were then counted and bacterial numbers were calculated. The MBC was considered to be the lowest concentration of the antibiotics that prevented growth and reduced the inoculum by >99.9% within 48 h, irrespective of counts of survivors at higher antibiotic concentrations.

[4] = test system: C. difficile ATCC 700057; experiment: MIC by agar dilution (CLSI) against quality control strain; format: cell-based, Clostridioides difficile; details: Clostridioides difficile, read-out: MIC
Description: as §1

[5] = test system: C. difficile ATCC 700057; experiment: MIC by broth dilution (GAM broth); format: cell-based, Clostridioides difficile; details: Clostridioides difficile, read-out: MIC
Description: as §1

[6] = test system: C. difficile ATCC 700057; format: cell-based, Clostridioides difficile
[7] = test system: C. difficile ATCC 700057; experiment: Mutant prevention concentration; format: cell-based, Clostridioides difficile; details: approximately 10^10 CFU, 3 days
Description: The mutant prevention concentration was measured by plating approximately 10^10 CFU of C. difficile ATCC 700057 onto a GAM agar plate containing the test agent. Inoculated plates were incubated for 3 days, and the MIC for each antibiotic that prevented the growth of colonies was determined using the agar dilution method as described by the CLSI ([41]). The MIC values of grown colonies were compared to determine which bacteria were resistant. The MPC was defined as the lowest concentration that prevented the growth of resistant bacteria.

[8] = test system: C. difficile ATCC 700057; experiment: Postantibiotic effect (PAE); format: cell-based, Clostridioides difficile; details: for Postantibiotic effect: 1 h exposure
Description: C. difficile ATCC 700057 was cultured in GAM agar and adjusted in GAM broth to approximately 10^6 CFU/ml. The bacterial suspensions were preincubated at 37°C for 1 h. […] After preincubation, test and reference solutions were added to each bacterial suspension in a test tube, and the suspensions were cultured for 1 h. After exposure to the test compounds, bacterial suspensions were washed with GAM broth and cultured for 6 h. […] The PAE was defined according to Craig and Gudmundsson as PAE = T − C, where T is the time required for the viable counts of the exposed bacteria to increase by 1 log10 above the counts observed immediately after washing, and C is the corresponding time for the antibiotic unexposed controls ([44]).

[9] = test system: C. difficile ATCC 43255; experiment: In vivo hamster model of C. difficile infection; design: species or system golden Syrian hamsters
Description: C. difficile ATCC 43255 was cultured on GAM agar, and a bacterial suspension was prepared in saline ([26]). […] Hamsters were infected using oral gavage with 0.5 ml of suspension containing approximately 10^6 CFU of C. difficile (day −1). The next day, the animals were administered clindamycin phosphate (0.2 mg/ml in water) by oral gavage at a dose of 5 ml/kg of body weight, for a final dose of 1 mg/kg (day 0). The animals were allocated to the test groups using a stratified randomization method based on the body weight of each infected animal. The test compounds were administered by oral gavage once daily for 5 days (OPS-2071, 0.008 to 1 mg/kg; fidaxomicin, 0.04 mg/kg to 5 mg/kg; vancomycin, 0.04 to 5 mg/kg [5-fold dilution]). Infected control animals were administered 5% (wt/vol) gum arabic solution by oral gavage. […] The cecal contents of dead animals were tested for toxin A and toxin B using C.Diff Quik Chek Complete (Abbott Diagnostics Medical Co., Ltd., Tokyo, Japan) to confirm that the death of the animal was due to CDI.
The statistical significance of OPS-2071, fidaxomicin, and vancomycin treatment was analyzed at all doses against vehicle. Survival curves were estimated for each group using the Kaplan-Meier method. Differences in survival homogeneity in each group were evaluated with a log-rank test with Dunnett-type (two-sided) comparison.

[10] = test system: C. difficile ATCC 43255; experiment: MIC against the infection strain; format: cell-based, Clostridioides difficile
[11] = test system: C. difficile ATCC 700057; experiment: Effect of pH on MIC (agar dilution); format: cell-based, Clostridioides difficile; details: Clostridioides difficile
[12] = plasma concentrations in the low nanogram per milliliter range or lower; cited from earlier work
[13] = molecular target: DNA gyrase of C. difficile (Clostridioides difficile, UniProt Q18C89+Q18C90); experiment: biochemical
[14] = nonhypervirulent strains (n = 42)

Sequence of DNA gyrase of C. difficile (Q18C90 entry or part of it): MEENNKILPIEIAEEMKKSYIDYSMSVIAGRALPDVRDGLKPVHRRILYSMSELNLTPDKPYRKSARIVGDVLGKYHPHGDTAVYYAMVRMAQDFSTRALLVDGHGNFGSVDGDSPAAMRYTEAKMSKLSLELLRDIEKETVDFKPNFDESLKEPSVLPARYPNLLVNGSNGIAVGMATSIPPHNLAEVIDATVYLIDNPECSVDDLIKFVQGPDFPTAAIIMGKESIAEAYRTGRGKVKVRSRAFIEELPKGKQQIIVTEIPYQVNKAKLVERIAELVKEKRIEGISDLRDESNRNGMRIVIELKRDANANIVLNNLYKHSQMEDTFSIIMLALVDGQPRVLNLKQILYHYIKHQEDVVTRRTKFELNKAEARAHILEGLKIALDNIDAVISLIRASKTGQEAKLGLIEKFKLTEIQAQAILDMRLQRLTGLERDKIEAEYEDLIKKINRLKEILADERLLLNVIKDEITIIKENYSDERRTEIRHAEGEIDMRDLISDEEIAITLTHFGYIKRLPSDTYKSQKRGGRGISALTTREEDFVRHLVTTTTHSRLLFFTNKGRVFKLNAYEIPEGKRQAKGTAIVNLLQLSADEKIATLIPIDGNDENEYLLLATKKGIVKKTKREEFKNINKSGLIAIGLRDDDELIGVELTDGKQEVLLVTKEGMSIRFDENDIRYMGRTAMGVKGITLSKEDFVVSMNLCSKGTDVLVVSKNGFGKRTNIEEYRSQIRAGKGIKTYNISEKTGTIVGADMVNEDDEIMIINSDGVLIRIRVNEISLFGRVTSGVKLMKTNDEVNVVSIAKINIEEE
Sequence of DNA gyrase of C. difficile (Q18C89 entry or part of it): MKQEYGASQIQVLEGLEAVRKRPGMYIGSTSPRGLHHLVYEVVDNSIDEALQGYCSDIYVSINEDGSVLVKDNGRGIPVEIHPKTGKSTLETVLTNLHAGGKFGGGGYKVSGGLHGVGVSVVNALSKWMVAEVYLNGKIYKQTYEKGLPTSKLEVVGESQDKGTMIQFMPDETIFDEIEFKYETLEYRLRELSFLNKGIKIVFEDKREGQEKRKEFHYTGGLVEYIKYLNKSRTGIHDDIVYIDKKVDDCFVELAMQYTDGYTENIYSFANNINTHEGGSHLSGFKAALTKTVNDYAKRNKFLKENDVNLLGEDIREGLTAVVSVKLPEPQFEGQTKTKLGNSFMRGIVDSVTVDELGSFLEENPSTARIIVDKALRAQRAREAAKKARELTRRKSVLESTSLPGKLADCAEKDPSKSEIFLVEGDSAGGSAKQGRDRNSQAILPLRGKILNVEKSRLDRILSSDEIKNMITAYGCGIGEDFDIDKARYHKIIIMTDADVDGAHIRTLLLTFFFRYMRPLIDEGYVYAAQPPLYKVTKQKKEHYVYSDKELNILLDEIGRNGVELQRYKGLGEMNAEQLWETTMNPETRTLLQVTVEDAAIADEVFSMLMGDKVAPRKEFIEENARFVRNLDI

Compound `CCc1c(Cl)c(O)c(Cl)c(O)c1C(=O)O[C@H]1[C@H](O)[C@H](OC)[C@H](OC/C2=C\C=C\C[C@H](O)/C(C)=C/[C@H](CC)[C@@H](O[C@@H]3OC(C)(C)[C@@H](OC(=O)C(C)C)[C@H](O)[C@@H]3O)/C(C)=C/C(C)=C/C[C@@H]([C@@H](C)O)OC2=O)O[C@@H]1C` [Fidaxomicin] has an MIC90 [1] of 8 µg/mL (≈ 7.56 µM), an MIC50 [1] of 0.063 µg/mL (≈ 0.0595 µM) and an MIC90 ([2]; all 62 strains) of 0.25 µg/mL (≈ 0.236 µM). For the same compound, the MIC50 ([2]; hypervirulent strains (n = 20)) was 0.25 µg/mL (≈ 0.236 µM), the MIC90 ([2]; hypervirulent strains (n = 20)) was 0.25 µg/mL (≈ 0.236 µM) and the MIC50 [2, 14] was 0.06 µg/mL (≈ 0.0567 µM). For the same compound, the MIC90 [2, 14] was 0.25 µg/mL (≈ 0.236 µM), the “Cumulative percentage of strains” value ([2]; Hyp (n = 20), MIC 0.063 μg/ml) was 0% and the “Cumulative percentage of strains” value ([2]; Non-hyp (n = 42), MIC 0.008 μg/ml) was 5%. For the same compound, the “Cumulative percentage of strains” value ([2]; Non-hyp (n = 42), MIC 0.063 μg/ml) was 52%, the “Cumulative percentage of strains” value ([2]; Non-hyp (n = 42), MIC <0.004 μg/ml) was 0% and the MIC range ([2]; hypervirulent strains (n = 20)) was 0.125 to 0.5 µg/mL. The MIC range [2, 14] was 0.008 to 0.5 µg/mL, the “MBC Range” value ([3]; >99.9% reduction within 48 h) was 0.06 to 0.25 µg/mL and the “MIC range” value ([3]; broth dilution) was 0.06 to 0.25 µg/mL. The MIC90 ([3]; Clostridioides difficile, broth dilution, read-out: MIC90) was 0.125 µg/mL (≈ 0.118 µM), the MBC ([3]; Clostridioides difficile, read-out: MBC90) was 0.25 µg/mL (≈ 0.236 µM) and the MIC ([4]; ATCC700057, agar dilution, determined for the spontaneous resistance assay) was 0.06 µg/mL (≈ 0.0567 µM). It also gave an MIC ([4]; ATCC700057, quality control strain ATCC 700057, CLSI method) of 0.063 µg/mL (≈ 0.0595 µM), an MIC ([5]; ATCC700057, broth dilution, retested for the time-kill assay) of 0.03 µg/mL (≈ 0.0284 µM) and an MIC ([5]; ATCC700057, broth method, determined for the PAE assay) of 0.06 µg/mL (≈ 0.0567 µM). For the same compound, the “Frequency of spontaneous resistance” value ([6]; 4× MIC) was 1.47 × 10^–7, the “Frequency of spontaneous resistance” value ([6]; 16× MIC) was <9.17 × 10^–9 and the “Frequency of spontaneous resistance” value ([6]; 64× MIC) was <9.17 × 10^–9. The “mutant prevention concentration (MPC)” value [7] was 8 µg/mL, the “PAEs at 4- and 8-fold the MIC” value ([8]; 4- and 8-fold the MIC) was 2.86 to 2.77 h and the Postantibiotic effect ([8]; 4× MIC) was 2.86 h. For the same compound, the Postantibiotic effect ([8]; 8× MIC) was 2.77 h, the “50% effective dose (ED50)” value ([9]; survival on day 20, oral once daily for 5 days, probit method) was 1.63 mg/kg/day and the “dosages with significant efficacy compared with vehicle control” value ([9]; survival, log-rank test) was ≥ 1 mg/kg. For the same compound, the MIC [10] was 0.06 µg/mL (≈ 0.0567 µM), the MIC ([11]; ATCC700057, pH 6) was 0.03 µg/mL (≈ 0.0284 µM) and the MIC ([11]; ATCC700057, pH 7) was 0.06 µg/mL (≈ 0.0567 µM). The MIC ([11]; ATCC700057, pH 8) was 0.06 µg/mL (≈ 0.0567 µM) and the “oral absorption” value [12] was “minimally absorbed”.
With `C[C@H]1COc2c(N3CCN(C)CC3)c(F)cc3c(=O)c(C(=O)O)cn1c23` [Levofloxacin] the “activity against C. difficile isolates” value ([1]; 54 clinical isolates) was “inactive”, the MIC90 [1] was > 128 µg/mL and the MIC50 [1] was 128 µg/mL (≈ 354 µM). It also gave an IC50 [13] of 31.8 µM.
